Measurements taken from US5677297A, “Benzazepine-, benzoxazepine- and benzothiazepine-n-acetic acid derivatives, process for their preparation and pharmaceutical compositions containing them” (Solvay Pharmaceuticals GmbH, priority 1995, dated 1997).

Experiment: In vivo determination of the effect on diuresis/natriuresis in volume-loaded rats
Design: species or system rat (male Wistar)
Details: urine collected over 60 min
Description: 4. In vivo determination of the effect of the substances on diuresis/natriuresis in volume-loaded rats.
The in vivo activity was investigated in volume-loaded rats. In this experiment a high cardiac filling pressure was caused by infusion of isotonic sodium chloride solution, which results in ANP release and thus diuresis/natriuresis.
The tests are carried out with male Wistar rats having a body weight of 200-400 g. Under neuroleptanalgesia (fentanyl; Hypnorm™, manufactured by Janssen), a catheter was placed in the right femoral vein for the baseline infusion and the volume loading with isotonic sodium chloride solution. After the abdominal cavity had been opened, a second catheter was inserted into the bladder, and the urethra was tied off so that it was possible to measure the urine volume, natriuresis and kaliuresis.
The abdominal cavity was closed again and the animals received a continuous infusion with sodium chloride solution (0.5 ml/100 g body weight) throughout the 2 hours of the test. After an equilibration period of 30 minutes, in a preliminary phase before the test substance was given, urine samples were collected three times over a period of 10 minutes in each case. These preliminary values ("predrug" values) were determined in order to check that there was a continuous flow of urine in the test animals.
The solutions containing test substances were then administered intravenously (bolus injection into the femoral vein) or orally (by gavage) to groups of 10 rats each. With both modes of administration, in each case one control group of animals received only placebo solutions which contained no active substance. 5 Minutes after i.v. administration or 120 minutes after oral administration of the substances, the rats were loaded with an increased volume of sodium chloride solution i.v. (2 ml/100 g body weight in 2 minutes) and the urine was collected over a period of 60 min. The amounts of urine produced in this period were determined, and the sodium and potassium contents therein were measured. The increase in excretion which took place under volume loading by comparison with the preliminary values was deduced from the resulting amounts of urine.
Furthermore, the amounts of sodium and potassium excreted under volume loading after administration of test substance are also indicated as a percentage of the amounts of sodium and potassium excreted under volume loading after placebo administration.

O=C(O)CN1C(=O)[C@@H](NC(=O)C2(C[C@@H](CCc3ccccc3)C(=O)O)CCCC2)CCc2ccccc21 [Example 8, (3S,2'R)-3-[1-(2'-Carboxy-4'-phenylbutyl)cyclopentane-1-carbonylamino]-2,3,4,5-tetrahydro-2-oxo-1H-1-benzazepine-1-acetic acid]
Increase in the excretion of urine under volume loading after administration of test substance as % based on the increase after placebo administration (0.1 mg/kg i.v.): 123.5% | Increase in the excretion of urine under volume loading after administration of test substance as % based on the increase after placebo administration (1.0 mg/kg i.v.): 153.7% | K excretion under volume loading, amount excreted after administration of test substance as % of the amount excreted after placebo administration (0.1 mg/kg i.v.): 80.8% | K excretion under volume loading, amount excreted after administration of test substance as % of the amount excreted after placebo administration (1.0 mg/kg i.v.): 121.8% | Na excretion under volume loading, amount excreted after administration of test substance as % of the amount excreted after placebo administration (0.1 mg/kg i.v.): 160.9% | Na excretion under volume loading, amount excreted after administration of test substance as % of the amount excreted after placebo administration (1.0 mg/kg i.v.): 230.4%
